Consider two compounds from patent US20070117770A1, “Human ribosomal DNA (rDNA) and ribosomal RNA (rRNA) nucleic acids and uses thereof” (Cylene Pharmaceuticals, Inc., priority 2005, published 2007).

In one assay the target is CDK2/cyclinE(h) (Homo sapiens, UniProt P24941). Put plainly: Protein kinase inhibition assay. The class given is biochemical. The note with it: read-out: percent residual activity of CDK2/cyclinE(h). On the procedure: (§1) Certain compounds were tested for activity in protein kinase inhibition assays. All substrates were dissolved and diluted to working stocks in de-ionized water, apart from histone H1 (10× working stock in 20 mM MOPS pH 7.0), PDKtide (10× working stock in 50 mM Tris pH 7.0) ATF2 (which is typically stored at a 20× working stock in 50 mM Tris pH 7.5, 150 mM NaCl, 0.1 mM EGTA, 0.03% Brij-35, 50% glycerol, 1 mM benzamidine, 0.2 mM PMSF and 0.1% R-mercaptoethanol), KKLNRTLSFAEPG (SEQ ID NO:203) and RRRLSFAEPG (SEQ ID NO:204) (50 mM HEPES pH 7.4) and GGEEEEYFELVKKKK (SEQ ID NO:205) (20 mM MOPS pH 7.0). All kinases were pre-diluted to a 10× working concentration prior to addition into the assay. The composition of the dilution buffer for each kinase is detailed below.
(§2) In a final reaction volume of 25 μl, CDK2/cyclinE (h) (5-10 mU) is incubated with 8 mM MOPS pH 7.0, 0.2 mM EDTA, 0.1 mg/ml histone H1, 10 mM MgAcetate and [gamma-33P-ATP] (specific activity approx. 500 cpm/pmol, concentration as required). The reaction is initiated by the addition of the MgATP mix. After incubation for 40 minutes at room temperature, the reaction is stopped by the addition of 5 μl of a 3% phosphoric acid solution. 10 μl of the reaction is then spotted onto a P30 filtermat and washed three times for 5 minutes in 75 mM phosphoric acid and once in methanol prior to drying and scintillation counting.

Another assay concerns the target cSRC(h) (Homo sapiens, UniProt P12931). Nature of the assay: Protein kinase inhibition assay. The class given is biochemical. The following applies: read-out: percent residual activity of cSRC(h). Here is the method: as §1
In a final reaction volume of 25 μl, cSRC (h) (5-10 mU) is incubated with 8 mM MOPS pH 7.0, 0.2 mM EDTA, 250 μM KVEKIGEGTYGVVYK (SEQ ID NO:211) (Cdc2 peptide), 10 mM MgAcetate and [y-33P-ATP] (specific activity approx. 500 cpm/pmol, concentration as required). The reaction is initiated by the addition of the MgATP mix. After incubation for 40 minutes at room temperature, the reaction is stopped by the addition of 5 μl of a 3% phosphoric acid solution. […]

A further assay concerns the target ErbB4(h) (Homo sapiens, UniProt Q15303). Nature of the assay: Protein kinase inhibition assay. The note with it: read-out: percent residual activity of ErbB4(h). It is filed as biochemical. On the procedure: as §1
as §2, with “μl, ErbB4” for “μl, CDK2/cyclinE”, “EDTA, 2.5 mM MnCl2,” for “EDTA,”, “mg/ml poly(Glu, Tyr) 4:1,” for “mg/ml histone H1,”, “10 ll” for “10 μl”, “a Filtermat A” for “a P30 filtermat”

The next assay deals with IR(h) (Homo sapiens, UniProt P06213). Nature of the assay: Protein kinase inhibition assay. The class given is biochemical. The note with it: read-out: percent residual activity of IR(h). Here is the method: as §1
Sequence of IR(h) (P06213 28-1382): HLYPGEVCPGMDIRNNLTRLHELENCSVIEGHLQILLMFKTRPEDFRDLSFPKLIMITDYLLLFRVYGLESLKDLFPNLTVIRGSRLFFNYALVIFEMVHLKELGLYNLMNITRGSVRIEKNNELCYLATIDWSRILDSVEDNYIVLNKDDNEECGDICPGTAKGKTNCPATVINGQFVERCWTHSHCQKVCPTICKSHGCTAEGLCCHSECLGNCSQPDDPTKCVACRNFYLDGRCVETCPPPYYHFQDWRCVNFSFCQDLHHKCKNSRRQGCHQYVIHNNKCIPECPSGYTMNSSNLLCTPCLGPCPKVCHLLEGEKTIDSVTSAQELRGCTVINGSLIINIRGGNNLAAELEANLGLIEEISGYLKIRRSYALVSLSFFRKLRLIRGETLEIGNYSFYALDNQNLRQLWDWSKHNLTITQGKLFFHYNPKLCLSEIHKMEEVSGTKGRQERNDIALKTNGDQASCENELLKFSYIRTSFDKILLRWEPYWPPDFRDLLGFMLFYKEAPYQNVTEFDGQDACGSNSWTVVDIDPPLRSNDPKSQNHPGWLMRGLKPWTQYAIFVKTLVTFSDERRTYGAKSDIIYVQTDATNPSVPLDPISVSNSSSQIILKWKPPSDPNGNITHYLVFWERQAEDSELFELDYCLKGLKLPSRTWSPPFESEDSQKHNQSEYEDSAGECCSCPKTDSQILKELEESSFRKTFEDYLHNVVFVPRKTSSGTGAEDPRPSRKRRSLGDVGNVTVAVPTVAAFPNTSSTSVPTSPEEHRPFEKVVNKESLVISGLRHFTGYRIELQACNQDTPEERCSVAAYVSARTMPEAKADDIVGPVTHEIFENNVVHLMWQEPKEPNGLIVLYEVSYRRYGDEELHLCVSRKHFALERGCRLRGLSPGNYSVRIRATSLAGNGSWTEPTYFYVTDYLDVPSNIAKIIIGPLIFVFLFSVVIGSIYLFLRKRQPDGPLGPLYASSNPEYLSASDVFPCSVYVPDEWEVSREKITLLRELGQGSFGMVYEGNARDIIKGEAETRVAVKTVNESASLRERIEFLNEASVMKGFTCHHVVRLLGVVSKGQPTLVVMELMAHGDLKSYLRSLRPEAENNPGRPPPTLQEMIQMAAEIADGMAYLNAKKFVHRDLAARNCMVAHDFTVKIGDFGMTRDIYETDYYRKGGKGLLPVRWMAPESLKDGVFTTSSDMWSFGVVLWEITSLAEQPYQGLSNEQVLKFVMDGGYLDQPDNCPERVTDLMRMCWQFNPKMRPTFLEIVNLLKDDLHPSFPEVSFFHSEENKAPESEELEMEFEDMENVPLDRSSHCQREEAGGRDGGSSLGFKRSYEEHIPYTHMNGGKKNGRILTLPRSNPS
In a final reaction volume of 25 μl, IR (h) (5-10 mU) is incubated with 50 mM Tris pH 7.5, 0.1 mM EGTA, 0.1 mM Na3VO4, 0.1% R-mercaptoethanol, 250 μM KKSRGDYMTMQIG (SEQ ID NO:210), 10 mM MnCl2, 10 mM MgAcetate and [gamma-33P-ATP] (specific activity approx. 500 cpm/pmol, concentration as required). The reaction is initiated by the addition of the MgATP mix. After incubation for 40 minutes at room temperature, the reaction is stopped by the addition of 5 μl of a 3% phosphoric acid solution. […]

In another assay the target is JNK2α2(h) (Homo sapiens, UniProt P45984). Nature of the assay: Protein kinase inhibition assay. The class given is biochemical. The note with it: read-out: percent residual activity of JNK2α2(h). Here is the method: as §1
Sequence of JNK2α2(h) (P45984 whole entry): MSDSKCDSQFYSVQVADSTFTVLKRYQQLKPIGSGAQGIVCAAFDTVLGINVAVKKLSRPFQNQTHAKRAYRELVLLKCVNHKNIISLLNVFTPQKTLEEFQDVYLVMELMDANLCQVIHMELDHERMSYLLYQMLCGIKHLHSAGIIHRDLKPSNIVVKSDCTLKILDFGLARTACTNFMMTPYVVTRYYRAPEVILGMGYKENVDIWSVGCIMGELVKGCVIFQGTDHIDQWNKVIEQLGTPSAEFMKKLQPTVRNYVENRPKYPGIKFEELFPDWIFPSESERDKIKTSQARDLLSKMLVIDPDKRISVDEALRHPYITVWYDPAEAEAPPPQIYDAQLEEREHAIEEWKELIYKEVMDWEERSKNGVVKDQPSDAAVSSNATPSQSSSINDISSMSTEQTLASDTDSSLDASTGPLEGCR
as §2, with “JNK2α2” for “CDK2/cyclinE”, “50” for “8”, “Tris” for “MOPS”, “7.5,” for “7.0, 0.2 mM EDTA,”, “[…], 0.1% R-mercaptoethanol, 3 μM ATF2,” for “mg/ml histone H1,”

Assay [1] has as its system c-myc mRNA in HCT116 cells. Put plainly: RNA Polymerase II-dependent RNA synthesis (c-myc mRNA, Taqman qRT-PCR). The class given is cell-based. The following applies: at the tested concentrations. On the procedure: Effects of compound A-1 and compound B-1 on DNA synthesis, RNA synthesis and protein synthesis were determined in HCT116 cells. HCT116 cells were plated overnight at 100,000 cells per mL. Next day cells were treated with increasing amounts of either compound A-1 or compound B-1 followed by one hour incubation with BrdU label (from a BrdU Cell proliferation Assay Kit, Calbiochem) to monitor DNA synthesis; […] of ^3H-uridine to monitor total RNA synthesis; […] of ^3H-methionine to monitor protein synthesis or plain media to monitor RNA Polymerase II-dependent RNA synthesis. DNA synthesis was assessed using a BrdU-ELISA (BrdU Cell proliferation Assay Kit, Calbiochem). To measure total RNA synthesis, total RNA from treated cells was isolated with a RNease kit (QIAGEN), levels of total RNA were assessed with Ribogreen reagent (Invitrogen) and the newly synthesized tritiated RNA was measured in a scintillation Counter (Perkin Elmer). To measure effects on protein synthesis, cells were lysed in a RIPA buffer, and total protein was precipitated with 10% TCA on a glass-filters. Newly synthesized tritiated protein was measured in a scintillation Counter (Perkin Elmer). Effects of drugs on […] RNA synthesis were assessed by monitoring levels of a c-myc mRNA, which has a relatively short half-life of approximately 30 minutes, by Taqman qRT-PCR (ABI).

Sequence of cSRC(h) (P12931 whole entry): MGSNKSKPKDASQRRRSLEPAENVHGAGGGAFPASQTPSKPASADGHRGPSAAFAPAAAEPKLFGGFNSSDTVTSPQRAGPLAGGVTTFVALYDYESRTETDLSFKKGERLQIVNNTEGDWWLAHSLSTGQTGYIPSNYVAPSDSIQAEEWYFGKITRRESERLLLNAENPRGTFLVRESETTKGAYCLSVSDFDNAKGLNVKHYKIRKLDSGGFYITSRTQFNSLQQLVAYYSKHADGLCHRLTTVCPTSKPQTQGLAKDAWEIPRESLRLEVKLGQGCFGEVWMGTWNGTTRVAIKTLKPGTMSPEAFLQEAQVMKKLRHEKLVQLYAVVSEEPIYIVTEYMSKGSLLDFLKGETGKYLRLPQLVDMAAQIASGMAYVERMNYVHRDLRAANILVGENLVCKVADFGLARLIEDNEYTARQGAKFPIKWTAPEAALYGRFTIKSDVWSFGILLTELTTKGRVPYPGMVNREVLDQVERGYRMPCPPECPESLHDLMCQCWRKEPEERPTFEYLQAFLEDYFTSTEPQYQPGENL
Sequence of ErbB4(h) (Q15303 26-1308): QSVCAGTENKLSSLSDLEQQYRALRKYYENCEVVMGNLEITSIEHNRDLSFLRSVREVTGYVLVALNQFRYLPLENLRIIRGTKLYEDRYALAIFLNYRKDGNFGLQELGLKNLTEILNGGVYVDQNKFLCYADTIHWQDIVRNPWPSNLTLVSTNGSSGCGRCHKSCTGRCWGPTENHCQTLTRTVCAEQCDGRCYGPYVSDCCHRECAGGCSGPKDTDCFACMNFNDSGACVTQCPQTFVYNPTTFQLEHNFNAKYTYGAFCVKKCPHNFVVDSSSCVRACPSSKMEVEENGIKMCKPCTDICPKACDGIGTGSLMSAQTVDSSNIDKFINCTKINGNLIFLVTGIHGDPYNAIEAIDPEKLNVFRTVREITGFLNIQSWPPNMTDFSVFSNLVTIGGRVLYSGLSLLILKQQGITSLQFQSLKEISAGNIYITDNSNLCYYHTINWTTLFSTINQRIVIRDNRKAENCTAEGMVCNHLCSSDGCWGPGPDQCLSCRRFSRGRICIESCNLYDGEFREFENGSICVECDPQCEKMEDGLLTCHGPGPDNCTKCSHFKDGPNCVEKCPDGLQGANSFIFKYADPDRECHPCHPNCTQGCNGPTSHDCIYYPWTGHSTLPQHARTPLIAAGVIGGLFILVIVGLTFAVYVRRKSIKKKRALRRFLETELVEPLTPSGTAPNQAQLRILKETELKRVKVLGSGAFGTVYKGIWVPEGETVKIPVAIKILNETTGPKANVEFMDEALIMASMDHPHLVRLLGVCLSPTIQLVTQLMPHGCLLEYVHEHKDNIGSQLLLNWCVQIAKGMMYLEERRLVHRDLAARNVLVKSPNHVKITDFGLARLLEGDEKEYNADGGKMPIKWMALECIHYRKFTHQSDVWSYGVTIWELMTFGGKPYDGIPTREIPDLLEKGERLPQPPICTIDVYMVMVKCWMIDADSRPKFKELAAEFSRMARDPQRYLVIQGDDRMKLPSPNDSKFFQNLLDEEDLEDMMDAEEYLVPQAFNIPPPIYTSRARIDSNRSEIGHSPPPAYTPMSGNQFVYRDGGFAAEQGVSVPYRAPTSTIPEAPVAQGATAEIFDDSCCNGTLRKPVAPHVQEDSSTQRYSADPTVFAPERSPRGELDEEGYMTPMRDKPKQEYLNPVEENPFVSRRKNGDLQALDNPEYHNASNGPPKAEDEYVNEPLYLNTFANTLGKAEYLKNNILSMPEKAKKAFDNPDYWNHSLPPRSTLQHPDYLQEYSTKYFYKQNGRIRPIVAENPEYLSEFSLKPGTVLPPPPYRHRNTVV

For `CN1CCCC1CCNC(=O)c1cn2c3c(c(N4CCC(c5cnccn5)C4)c(F)cc3c1=O)Oc1cc3ccccc3cc1-2` (stereo not drawn) [Compound A-1], the remaining activity at 2.5 µM at CDK2/cyclinE(h) was 102%; on cSRC(h), 33%; on ErbB4(h), 92%; on IR(h) it was 96%; at JNK2α2(h) it was 101%. Further, the “effect on c-myc mRNA levels” value in assay [1] is “no measureable effect”.

With `CC(=O)N1CCN(c2ccc3c(=O)c(C(=O)NCCN4CCCC4)c4n(C)c5ccccc5n4c3n2)CC1` [Compound B-1], the remaining activity at 2.5 µM at CDK2/cyclinE(h) came out at 117%; on cSRC(h) it was 137%; at ErbB4(h), 107%; at IR(h), 110%; on JNK2α2(h), 106%. Further, in assay [1], the “effect on c-myc mRNA levels” value is listed as “no measureable effect”.
